What was measured:
[1] = molecular target: β-galactosidase (Escherichia coli, UniProt P00722); test: p-nitrophenyl galactopyranoside hydrolysis, absorbance at […] nm; assay type: biochemical
[2] = molecular target: β-glucosidase; test: p-nitrophenyl glucopyranoside hydrolysis, absorbance at […] nm; assay type: biochemical, Prunus dulcis

Sequence of β-galactosidase (P00722 2-1024): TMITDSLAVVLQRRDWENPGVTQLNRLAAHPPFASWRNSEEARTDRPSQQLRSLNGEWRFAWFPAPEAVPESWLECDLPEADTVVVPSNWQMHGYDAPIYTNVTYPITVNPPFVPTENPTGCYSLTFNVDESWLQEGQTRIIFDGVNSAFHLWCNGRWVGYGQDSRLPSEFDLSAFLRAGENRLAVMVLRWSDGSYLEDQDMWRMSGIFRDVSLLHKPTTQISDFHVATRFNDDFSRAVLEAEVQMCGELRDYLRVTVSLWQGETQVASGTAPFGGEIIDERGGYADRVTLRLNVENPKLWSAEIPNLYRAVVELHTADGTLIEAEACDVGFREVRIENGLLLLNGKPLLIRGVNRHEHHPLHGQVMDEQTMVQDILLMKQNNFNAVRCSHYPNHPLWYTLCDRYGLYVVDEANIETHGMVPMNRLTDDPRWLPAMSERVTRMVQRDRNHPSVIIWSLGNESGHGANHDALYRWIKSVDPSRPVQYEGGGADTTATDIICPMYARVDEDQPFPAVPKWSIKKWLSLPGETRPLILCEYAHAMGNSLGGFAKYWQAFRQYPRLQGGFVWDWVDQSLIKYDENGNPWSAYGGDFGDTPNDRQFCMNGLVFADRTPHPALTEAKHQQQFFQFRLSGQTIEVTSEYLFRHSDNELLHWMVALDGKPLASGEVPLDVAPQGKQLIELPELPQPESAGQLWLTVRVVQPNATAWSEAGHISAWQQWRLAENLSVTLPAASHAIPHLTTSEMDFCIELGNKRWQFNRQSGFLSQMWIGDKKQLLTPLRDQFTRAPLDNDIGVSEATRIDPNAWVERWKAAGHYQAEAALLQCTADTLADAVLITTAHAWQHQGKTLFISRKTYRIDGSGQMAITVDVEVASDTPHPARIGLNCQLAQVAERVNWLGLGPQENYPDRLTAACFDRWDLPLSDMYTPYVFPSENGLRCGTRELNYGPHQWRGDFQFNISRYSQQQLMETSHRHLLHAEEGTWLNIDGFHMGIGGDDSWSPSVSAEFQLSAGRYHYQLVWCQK

Row | SMILES | Ki [1] [mM] | Ki [2] [mM]
1 | O=C(O)[C@H]1[C@@H]2CN[C@H](CO)[C@@H](O)[C@@H]21 [8a, (1R,4R,5S,6S,7S)-5-Hydroxy-4-(hydroxymethyl)-3-azabicyclo[4.1.0]heptane-7-carboxylic Acid] | 1.18 | –
2 | CN1C[C@H]2[C@H](CO)[C@H]2[C@H](O)[C@H]1CO [compound 9, (1S,4R,5S,6S,7S)-4,7-bis(Hydroxymethyl)-3-methyl-3-azabicyclo[4.1.0]heptan-5-ol] | – | 4.43
